Assay results: patent publication US8293732B2, “Antibacterial quinoline derivatives” (Janssen Pharmaceutica N.V., priority 2006, dated 2012)
Values after ≈ are worked out from the molar mass of the structure shown.

How the values were obtained:
[1] = test system: Staphylococcus aureus (ATCC29213); test: In-vitro anti-bacterial microtitre plate assay, IC90 determination (STA 1 B29213); format: cell-based; conditions: 90% inhibitory concentration for bacterial growth, 37° C., resazurin fluorescence; for IC90 values STA 1 B29213: 24 hours; for IC90: Staphylococcus aureus, ATCC29213, 24 h
Protocol: (§1) The bacteria used in this study were grown overnight in flasks containing 100 ml Mueller-Hinton Broth (Becton Dickinson—cat. no. 275730) in sterile de-ionized water, with shaking, at 37° C. Stocks (0.5 ml/tube) were stored at −70° C. until use. Bacteria titrations were performed in microtiter plates to detect the TCID50, in which the TCID50 represents the dilution that gives rise to bacterial growth in 50% of inoculated cultures.
(§2) In general, an inoculum level of approximately 100 TCID50 was used for susceptibility testing.
(§3) Flat-bottom, sterile 96-well plastic microtiter plates were filled with 180 μl of sterile deionized water, supplemented with 0.25% BSA. Subsequently, stock solutions (7.8× final test concentration) of compounds were added in 45 μl volumes in column 2. Serial five-fold dilutions (45 μl in 180 μl) were made directly in the microtiter plates from column 2 to reach column 11. Untreated control samples with (column 1) and without (column 12) inoculum were included in each microtiter plate. Depending on the bacteria type, approximately 10 to 60 CFU per well of bacteria inoculum (100 TCID50), in a volume of 100 μl in 2.8× Mueller-Hinton broth medium, was added to the rows A to H, except column 12. The same volume of broth medium without inoculum was added to column 12 in row A to H. The cultures were incubated at 37° C. for 24 hours under a normal atmosphere (incubator with open air valve and continuous ventilation). At the end of incubation, one day after inoculation, the bacterial growth was quantitated fluorometrically. Therefore resazurin (0.6 mg/ml) was added in a volume of 20 μl to all wells 3 hours after inoculation, and the plates were re-incubated overnight. A change in colour from blue to pink indicated the growth of bacteria. The fluorescence was read in a computer-controlled fluorometer (Cytofluor Biosearch) at an excitation wavelength of 530 nm and an emission wavelength of 590 nm. The % growth inhibition achieved by the compounds was calculated according to standard methods.
(§4) STA 29213 means Staphylococcus aureus (ATCC29213); SPN 6305 means Streptococcus pneumoniae (ATCC6305); MSM 607 means M. Smegmatis (ATCC607); ATCC means […].

[2] = test system: Streptococcus pneumoniae (ATCC6305); test: In-vitro anti-bacterial microtitre plate assay, IC90 determination (SPN 1 6305); format: cell-based; conditions: 90% inhibitory concentration for bacterial growth, 37° C., resazurin fluorescence; for IC90 values SPN 1 6305: 24 hours; for IC90: Streptococcus pneumoniae, ATCC6305, 24 h
Protocol: as §1, §2, §3, §4

M. Smegmatis (ATCC607) = test: In-vitro anti-bacterial activity against strain M. Smegmatis ATCC607; format: cell-based; conditions: 90% inhibitory concentration for bacterial growth, 37° C., Alamar Blue fluorescence; for IC90 values MSM 1 ATCC607: 48 hours; for IC90: Mycolicibacterium smegmatis, ATCC607, 48 h, read-out: IC90 values MSM 1 ATCC607
Protocol: Flat-bottom, sterile 96-well plastic microtiter plates were filled with 180 μl of sterile deionized water, supplemented with 0.25% BSA. Subsequently, stock solutions (7.8× final test concentration) of compounds were added in 45 μl volumes to a series of duplicate wells in column 2 so as to allow evaluation of their effects on bacterial growth. Serial five-fold dilutions (45 μl in 180 μl) were made directly in the microtiter plates from column 2 to 11 using a customised robot system (Zymark Corp., Hopkinton, Mass.). Pipette tips were changed after every 3 dilutions to minimize pipetting errors with high hydrophobic compounds. Untreated control samples with (column 1) and without (column 12) inoculum were included in each microtiter plate. Approximately 250 CFU per well of bacteria inoculum, in a volume of 100 μl in 2.8× Mueller-Hinton broth medium, was added to the rows A to H, except column 12. The same volume of broth medium without inoculum was added to column 12 in row A to H. The cultures were incubated at 37° C. for 48 hours in a humidified 5% CO2 atmosphere (incubator with open air valve and continuous ventilation). At the end of incubation, two days after inoculation, the bacterial growth was quantitated fluorometrically. Therefore Alamar Blue (10×) was added to all wells in a volume of 20 μl and plates were incubated for another 2 hours at […]
The fluorescence was read in a computer-controlled fluorometer (Cytofluor, Biosearch) at an excitation wavelength of 530 nm and an emission wavelength of 590 nm (gain 30).
as §4

IC90 values STA 1 B29213 [1]	IC90 values SPN 1 6305 [2]	melting point	IC90 [1]	IC90 [2]	SMILES	IC90 values MSM 1 ATCC607 (M. Smegmatis (ATCC607))	IC90 (M. Smegmatis (ATCC607))
49.1 µg/mL (≈ 79.4 µM)	9.8 µg/mL (≈ 15.8 µM)	144 °C			COc1nc2ccc(Br)cc2cc1C(c1ccccc1)C(O)(CCCCN1CCN(C)CC1)COc1ccccc1 (single isomer, unassigned) [Compound 20]	9.8 µg/mL (≈ 15.8 µM)	
4.5 µg/mL (≈ 7.99 µM)	2.2 µg/mL (≈ 3.9 µM)	151 °C			COc1nc2ccc(Br)cc2cc1C(c1ccccc1)C(O)(CCCCN(C)C)COc1ccccc1 (single isomer, unassigned) [Compound 2]	1.8 µg/mL (≈ 3.19 µM)	
	8.9 µg/mL (≈ 15.8 µM)	148 °C	8.9 µg/mL (≈ 15.8 µM)		COc1nc2ccc(Br)cc2cc1C(c1ccccc1)C(O)(CCCCN(C)C)COc1ccccc1 (single isomer, unassigned) [Compound 1]		2.2 µg/mL (≈ 3.9 µM)
9.2 µg/mL (≈ 15.9 µM)	5.2 µg/mL (≈ 9 µM)	130 °C			COc1nc2ccc(Br)cc2cc1C(c1ccccc1)C(O)(CCCCN(C)C)COc1ccc(C)cc1 (single isomer, unassigned) [Compound 6]	1.8 µg/mL (≈ 3.12 µM)	
39.9 µg/mL (≈ 63.1 µM)	10.0 µg/mL (≈ 15.8 µM)	168 °C			COc1nc2ccc(Br)cc2cc1C(c1ccccc1)C(O)(CCCCN1CCN(C)CC1)COc1ccc(C)cc1 (single isomer, unassigned) [Compound 24]	10.0 µg/mL (≈ 15.8 µM)	
1.9 µg/mL (≈ 3.18 µM)	2.4 µg/mL (≈ 4.01 µM)	118 °C			COc1nc2ccc(Br)cc2cc1C(c1ccc(Cl)cc1)C(O)(CCCCN(C)C)COc1ccccc1 (single isomer, unassigned) [Compound 4]	1.9 µg/mL (≈ 3.18 µM)	

The next lines start with the compound.

SMILES	IC90 values STA 1 B29213 [1]	IC90 values SPN 1 6305 [2]	melting point	IC90 [1]	IC90 [2]	IC90 values MSM 1 ATCC607 (M. Smegmatis (ATCC607))	IC90 (M. Smegmatis (ATCC607))
COc1nc2ccccc2cc1C(c1cccc(-c2cnc3ccccc3c2)c1)C(O)(CCCCN(C)C)c1ccc2ccccc2c1 (single isomer, unassigned) [Compound 16]			141 °C	2 µg/mL (≈ 3.17 µM)	2 µg/mL (≈ 3.17 µM)		2 µg/mL (≈ 3.17 µM)
COc1nc2ccc(Br)cc2cc1C(c1ccc2c(c1)OCO2)C(O)(CCN(C)C)c1ccccc1 (single isomer, unassigned) [Compound 30]	55.0 µg/mL (≈ 100 µM)	1.7 µg/mL (≈ 3.09 µM)	159 °C			0.4 µg/mL (≈ 0.728 µM)	
COc1nc2ccccc2cc1C(c1ccc(-c2cnn(C)c2)cc1)C(O)(CCCCN(C)C)c1ccc2ccccc2c1 (single isomer, unassigned) [Compound 10]			190 °C	1.9 µg/mL (≈ 3.25 µM)	1.9 µg/mL (≈ 3.25 µM)	0.4 µg/mL (≈ 0.684 µM)	
COc1nc2ccc(Br)cc2cc1C(c1ccccc1)C(O)(CCCCN1CCN(C)CC1)COCc1ccccc1 (single isomer, unassigned) [Compound 28]	10.0 µg/mL (≈ 15.8 µM)	12.6 µg/mL (≈ 19.9 µM)	122 °C			4.5 µg/mL (≈ 7.11 µM)	
COc1nc2ccccc2cc1C(c1ccc(-c2ccoc2)cc1)C(O)(CCCCN(C)C)c1ccc2ccccc2c1 (single isomer, unassigned) [Compound 13]	1.8 µg/mL (≈ 3.15 µM)	2.0 µg/mL (≈ 3.5 µM)	197 °C			1.3 µg/mL (≈ 2.28 µM)	
